This is an account of results in patent publication US10765674B2, “Prevention of HIV-infection” (Janssen Sciences Ireland Unlimited Company, priority 2005, dated 2020).

The data set is described as follows: Tissue concentrations of TMC278 in beagle dog (biopsy on day 232) after single intramuscular administration. The data set is classed as in vivo, beagle dogs. The following applies: dog No. 16924, day 232 after single IM 2.5 mg/kg, aqueous 30% DMA/50% PEG400 solution; for concentration at 232 day: male, beagle, intramuscular. The protocol: On day 232 post-dose, a biopsy was performed (dog No. 16924 only) on the iliac lymph node (at the side of injection), on a muscle from the non-injected hind leg and on a muscle at the side of injection after ultrasonographic examination. All tissue samples were protected from light as much as possible and stored on melting ice. All samples were protected from light and stored at ≤−18° C. Finally, an additional blood sample was collected on day 272. This sample was processed and analysed similarly to the other blood samples. The concentration of TMC278 in dog tissue samples was also determined by a qualified research LC-MS/MS method. Tissues samples were homogenized with a 10-fold dilution in Milli-Q water by means of an Ultra-Turrax. The tissue homogenates (200 μl aliquot) were extracted by adding of 600 μl methanol (containing […]). After vortexing and centrifugation, the supernatant was transferred to an HPLC vial and 20 μl aliquots were injected. The LC and the MS conditions were the same as described above. The lower limit of quantification was 10.0 ng/g tissue. Samples were protected from light during the bioanalytical analysis.

Setting [1] is: muscle at the side of injection.
Where [2] appears, read: muscle from the non-injected hind leg.

As to `Cc1cc(C=CC#N)cc(C)c1Nc1ccnc(Nc2ccc(C#N)cc2)n1` [TMC278, 4-[[4-[[4-(2-cyanoethenyl)-2,6-dimethylphenyl]amino]-2-pyrimidinyl]-amino]benzonitrile], the concentration at 232 day (iliac lymph node at the side of injection) worked out at 72.6 ng/g, the concentration at 232 day under setting [1] was below 10 ng/g and the concentration at 232 day under setting [2] was below 10 ng/g. Further, the tissue concentration by setting is: under setting [1], below 10.0 ng/g; under setting [2], below 10.0 ng/g.
